# Measured values from ChEMBL document CHEMBL5352429, “Designed symmetrical β-hairpin peptides for treating multidrug-resistant salmonella typhimurium infections” (Eur J Med Chem, 2022).
# Activity calls are given as the source filed them. The rule behind the calls is not given here. Peptide text beside a SMILES is read from it.
# Experiments:
# [1] = Antibacterial activity against Salmonella dublin CICC 21497 incubated overnight by standard microtiter dilution method; format: functional, Salmonella enterica subsp. enterica serovar Dublin; details: Salmonella enterica
# RAW264.7 [2] = assay: Anti-inflammatory activity in mouse RAW264.7 cells assessed as inhibition of LPS-induced IL-1beta mRNA expression at 15 ug/ml preincubated with compound for 30 mins followed by LPS stimulation and measured after 4 hrs by RT-PCR analysis; format: functional, cell-based; details: dose 15.0 µg/ml, time 4.5 hrs
# Salmonella typhimurium [3] = assay: Antibacterial activity against Salmonella typhimurium DT104 assessed as reduction in IL-6 mRNA level in ileum at 20 mg/kg, ip administered for 3 days and measured on day 7 by RT-PCR analysis; format: functional, organism-based; details: Salmonella enterica subsp. enterica serovar Typhimurium, time 7.0 day
# Cell membrane [4] = assay: Induction of membrane damage in Salmonella typhimurium DT104 assessed as substantial damage to bacterial envelope at 1 times of MIC incubated for 60 mins by transmission electron microscopic analysis; format: subcellular; details: Salmonella enterica subsp. enterica serovar Typhimurium
# Salmonella typhimurium [5] = assay: Antibacterial activity against Salmonella typhimurium DT104 in the presence 50% inactivated mouse serum by MH broth based assay; format: functional, Salmonella enterica subsp. enterica serovar Typhimurium; details: Salmonella enterica
# RAW264.7 [6] = assay: Inhibition of LPS-stimulated IL-1beta production in mouse RAW264.7 cells at 1 to 128 ug/ml incubated for 24 hrs by ELISA analysis; format: functional, cell-based; details: dose 1-128 µg/ml
# RAW264.7 [7] = assay: Anti-inflammatory activity in mouse RAW264.7 cells assessed as inhibition of LPS-induced iNOS mRNA expression at 15 ug/ml preincubated with compound for 30 mins followed by LPS stimulation and measured after 4 hrs by RT-PCR analysis; format: functional, cell-based; details: dose 15.0 µg/ml, time 4.5 hrs
# Salmonella typhimurium [8] = assay: Antibacterial activity against Salmonella typhimurium DT104 assessed as reduction in IL-8 production in serum at 20 mg/kg, ip administered for 3 days and measured on day 7; format: functional, organism-based; details: Salmonella enterica subsp. enterica serovar Typhimurium, time 7.0 day
# Salmonella typhimurium [9] = assay: Antibacterial activity against Salmonella typhimurium DT104 in the presence 25% inactivated mouse serum by MH broth based assay; format: functional, Salmonella enterica subsp. enterica serovar Typhimurium; details: Salmonella enterica
# Salmonella enteritidis = assay: Antibacterial activity against Salmonella enteritidis CICC 21527 incubated overnight by standard microtiter dilution method; format: functional, Salmonella enterica subsp. enterica serovar Enteritidis; details: Salmonella enterica
# [10] = Antibacterial activity against Salmonella enterica subsp. enterica serovar Choleraesuis CICC 21493 incubated overnight by standard microtiter dilution method; format: functional
# Salmonella typhimurium [11] = assay: Antibacterial activity against Salmonella typhimurium DT104 assessed as increase in occludin mRNA level in colon at 20 mg/kg, ip administered for 3 days and measured on day 7 by RT-PCR analysis; format: functional, organism-based; details: Salmonella enterica subsp. enterica serovar Typhimurium, time 7.0 day
# [12] = Antibacterial activity against Salmonella paratyphi C CICC 21512 incubated overnight by standard microtiter dilution method; format: functional, Salmonella enterica subsp. enterica serovar Paratyphi C; details: Salmonella enterica
# Salmonella typhimurium [13] = assay: Antibacterial activity against Salmonella typhimurium DT104 assessed as reduction in IL-1beta mRNA level in ileum at 20 mg/kg, ip administered for 3 days and measured on day 7 by RT-PCR analysis; format: functional, organism-based; details: Salmonella enterica subsp. enterica serovar Typhimurium, time 7.0 day
# Staphylococcus aureus [14] = assay: Antibacterial activity against methicillin-resistant Staphylococcus aureus ATCC 43300 incubated overnight by standard microtiter dilution method; format: functional
# [15] = test system: Staphylococcus epidermidis; assay: Antibacterial activity against methicillin-resistant Staphylococcus epidermidis ATCC 12228 incubated overnight by standard microtiter dilution method; format: functional
# Candida albicans = assay: Antifungal activity against Candida albicans ATCC 10231 incubated overnight by standard microtiter dilution method; format: functional
# Lipid bilayer = assay: Induction of outer membrane permeabilization in Salmonella typhimurium DT104 at 0.625 to 15 microg/ml by NPN uptake based fluorescence spectrophotometric analysis; details: Salmonella enterica subsp. enterica serovar Typhimurium, dose 0.625-15 µg/ml
# Cell membrane [16] = assay: Induction of membrane damage in Salmonella typhimurium DT104 assessed as cytoplasmic outflow at 1 times of MIC incubated for 60 mins by transmission electron microscopic analysis; format: subcellular; details: Salmonella enterica subsp. enterica serovar Typhimurium
# Salmonella typhimurium [17] = assay: Antibacterial activity against Salmonella typhimurium DT104 ATCC 700408 incubated overnight by standard microtiter dilution method; format: functional, Salmonella enterica subsp. enterica serovar Typhimurium; details: Salmonella enterica
# Salmonella typhimurium [18] = assay: Antibacterial activity against Salmonella typhimurium DT104 infected in ICR mouse model assessed as alleviation of villi shortening at 20 mg/kg, ip administered for 3 days and measured on day 7 by H&E staining based analysis; format: functional, organism-based; details: Salmonella enterica subsp. enterica serovar Typhimurium, time 7.0 day
# Salmonella typhimurium [19] = assay: Antibacterial activity against multi-drug resistant Salmonella typhimurium DT104 assessed as inhibition of bacterial growth at 0.5 to 2 times of MIC by MH agar based serial dilution method; format: functional, organism-based; details: Salmonella enterica subsp. enterica serovar Typhimurium, time <= 120.0 min, TDE = time-dependent effect
# Lipopolysaccharide (LPS) = assay: Displacement of BODIPY-TR-cadaverine from Salmonella typhimurium LPS assessed as increase in fluorescence intensity by fluorescence spectrophotometric analysis; details: Salmonella enterica subsp. enterica serovar Typhimurium; dose 0.25-8 µg/ml
# [20] = test system: Salmonella enterica subsp. enterica serovar Paratyphi B; assay: Antibacterial activity against Salmonella paratyphi B CICC 21495 incubated overnight by standard microtiter dilution method; format: functional
# Salmonella typhimurium [21] = assay: Antibacterial activity against Salmonella typhimurium DT104 assessed as reduction in IL-15 mRNA level in ileum at 20 mg/kg, ip administered for 3 days and measured on day 7 by RT-PCR analysis; format: functional, organism-based; details: Salmonella enterica subsp. enterica serovar Typhimurium, time 7.0 day
# Salmonella typhimurium [22] = assay: Antibacterial activity against Salmonella typhimurium DT104 infected in mouse RAW264.7 cells assessed as log reduction in bacterial colony count at 1 times of MIC measured after 90 mins by MH agar based serial dilution method; format: functional, Salmonella enterica subsp. enterica serovar Typhimurium; details: 1.5 h
# Enterococcus faecalis = assay: Antibacterial activity against Enterococcus faecalis ATCC 29212 incubated overnight by standard microtiter dilution method; format: functional
# Cell membrane [23] = assay: Induction of membrane damage in Salmonella typhimurium DT104 assessed as cytoplasmic outflow at 1 times of MIC incubated for 15 mins by confocal laser scanning microscopic analysis; format: subcellular; details: Salmonella enterica subsp. enterica serovar Typhimurium
# Erythrocyte = assay: Hemolytic activity in human Red blood cells assessed as hemolysis incubated for 1 hrs by absorbance based microplate reader analysis; format: toxicity, cell-based
# Escherichia coli = assay: Antibacterial activity against Escherichia coli O157:H7 CICC 21530 incubated overnight by standard microtiter dilution method; format: functional
# Salmonella typhimurium [24] = assay: Antibacterial activity against Salmonella typhimurium DT104 assessed as reduction in TNF-alpha production in serum at 20 mg/kg, ip administered for 3 days and measured on day 7; format: functional, organism-based; details: Salmonella enterica subsp. enterica serovar Typhimurium, time 7.0 day
# Salmonella typhimurium [25] = assay: Antibacterial activity against Salmonella typhimurium DT104 assessed as increase in ZO-2 mRNA level in colon at 20 mg/kg, ip administered for 3 days and measured on day 7 by RT-PCR analysis; format: functional, organism-based; details: Salmonella enterica subsp. enterica serovar Typhimurium, time 7.0 day
# Staphylococcus aureus [26] = assay: Antibacterial activity against Staphylococcus aureus ATCC 29213 incubated overnight by standard microtiter dilution method; format: functional
# Salmonella typhimurium [27] = assay: Antibacterial activity against Salmonella typhimurium DT104 assessed as reduction in IL-4 mRNA level in ileum at 20 mg/kg, ip administered for 3 days and measured on day 7 by RT-PCR analysis; format: functional, organism-based; details: Salmonella enterica subsp. enterica serovar Typhimurium, time 7.0 day
# Salmonella typhimurium [28] = assay: Antibacterial activity against Salmonella typhimurium DT104 assessed as reduction in IL-8 mRNA level in ileum at 20 mg/kg, ip administered for 3 days and measured on day 7 by RT-PCR analysis; format: functional, organism-based; details: Salmonella enterica subsp. enterica serovar Typhimurium, time 7.0 day
# Cell membrane [29] = assay: Induction of membrane damage in Salmonella typhimurium DT104 assessed as membrane devastation at 1 times of MIC incubated for 60 mins by atomic force microscopic analysis; format: subcellular; details: Salmonella enterica subsp. enterica serovar Typhimurium
compound,measurement,setting,value
C[C@@H](O)[C@H](NC(=O)[C@H](CS)NC(=O)[C@H](CCCCN)NC(=O)[C@H](Cc1c[nH]c2ccccc12)NC(=O)[C@H](CCCCN)NC(=O)[C@@H](N)Cc1c[nH]c2ccccc12)C(=O)N[C@@H](CCCCN)C(=O)N[C@@H](CO)C(=O)NCC(=O)N[C@@H](CS)C(=O)N[C@@H](CCCCN)C(=O)N[C@@H](Cc1c[nH]c2ccccc12)C(=O)N[C@@H](CCCCN)C(=O)N[C@@H](Cc1c[nH]c2ccccc12)C(N)=O (H-WKWKCTKSGCKWKW-NH2),MIC,[1],8 µg/mL
same,inhibition,RAW264.7 [2],Active
same,Activity,Salmonella typhimurium [3],Active
same,Activity,Cell membrane [4],Active
same,MIC,Salmonella typhimurium [5],32 µg/mL
same,inhibition,RAW264.7 [6],Active
same,inhibition,RAW264.7 [7],Active
same,Activity,Salmonella typhimurium [8],Active
same,MIC,Salmonella typhimurium [9],16 µg/mL
same,MIC,Salmonella enteritidis,8 µg/mL
same,MIC,[10],8 µg/mL
same,Activity,Salmonella typhimurium [11],Active
same,MIC,[12],4 µg/mL
same,Activity,Salmonella typhimurium [13],Active
same,MIC,Staphylococcus aureus [14],8 µg/mL
same,MIC,[15],4 µg/mL
same,MIC,Candida albicans,2 µg/mL
same,Activity,Lipid bilayer,Active
same,Activity,Cell membrane [16],Active
same,MIC,Salmonella typhimurium [17],4 µg/mL
same,Activity,Salmonella typhimurium [18],Active
same,Activity,Salmonella typhimurium [19],Tde
same,Activity,Lipopolysaccharide (LPS),Dose-Dependent Effect
same,MIC,[20],1 µg/mL
same,Activity,Salmonella typhimurium [21],Active
same,log(activity),Salmonella typhimurium [22],3
same,MIC,Enterococcus faecalis,2 µg/mL
same,Activity,Cell membrane [23],Active
same,MHC,Erythrocyte,> 128 µg/mL
same,MIC,Escherichia coli,4 µg/mL
same,Activity,Salmonella typhimurium [24],Active
same,Activity,Salmonella typhimurium [25],Active
same,MIC,Staphylococcus aureus [26],4 µg/mL
same,Activity,Salmonella typhimurium [27],Active
same,Activity,Salmonella typhimurium [28],Active
same,Activity,Cell membrane [29],Active
